Legend:
[1] = test system: obese ZSF1 rats; test: Urine volume (15 h overnight, metabolic cages) of obese ZSF1 rats; format: in vivo, rat; details: 150 mg/kg oral gavage twice a day, 90 days, vs untreated ZSF1 rats
From the text: (§1) ZSF1 rat is a Leptin-resistant, obese, hypertensive Zucker diabetic fatty/Spontaneously hypertensive heart failure F1 hybrid (ZSF1) rat. The obese ZSF1 rat is described as a relevant pre-clinical model for the study of renal function decline to end stage renal disease in the setting of type 2 diabetes (Dower K et al., PLOS ONE 2017; 12 (7): e0181861).
(§2) Obese ZSF1 rats and lean ZSF1 (Lean) were 12-week-old at the time of treatment initiation.
(§3) The following groups were constituted: • Lean rats (untreated; n=5-8) • ZSF1 rats (untreated; n=9-12) • ZSF1 treated with PXL770 (n=8-12).
(§4) The compound of Example 2, also known as PXL770 was administered by oral gavage at the dose of 150 mg/kg twice a day for 8 days (13 weeks of age) or 90 days (24-week old of age).
(§5) The PXL770 suspension was prepared at the concentrations used in the study (150 mg/kg) in the vehicle, i.e. carboxymethylcellulose 0.5%/Tween 80 (98/2).
(§6) Randomly selected animals of each group (n=8-12) were placed in separate metabolic cages in order to collect 15 h over-night urine samples at D8 and D90. Albuminuria was determined as indicator of renal dysfunction using IDEXX Vetlab analyzer. Glycosuria was determined using IDEXX Vetlab analyzer. […]

[2] = test system: obese ZSF1 rats; test: Glycosuria in 15 h overnight urine of obese ZSF1 rats; format: in vivo, rat; details: 150 mg/kg oral gavage twice a day
From the text: as §1, §2, §3, §4, §5, §6

[3] = test system: obese ZSF1 rats; test: Albuminuria in 15 h overnight urine of obese ZSF1 rats; format: in vivo, rat; details: 150 mg/kg oral gavage twice a day
From the text: as §1, §2, §3, §4, §5, §6

[4] = test system: obese ZSF1 rats; test: Glomerular filtration rate (FITC-sinistrin, transcutaneous) in obese ZSF1 rats; format: in vivo, rat; details: 150 mg/kg oral gavage twice a day, 90 days (24 weeks of age), vs untreated ZSF1 rats
From the text: as §1, §2, §3, §4, §5
At D8 and D90, glomerular filtration rate was determined with the fluorescent glomerular filtration rate tracer fluorescein isothiocyanate (FITC)-sinistrin using the transcutaneous glomerular filtration rate system (NIC-Kidney; Mannheim Pharma and Diagnostics GmbH, Mannheim, Germany) (Schock-Kusch D. et al., PLOS One 2013; 8, e71519). […]

[5] = test system: preclinical model of diabetic nephropathy; details: K. O. Cameron et al., J. Med. Chem. 2016; cited from earlier work
[6] = background statement; cited from earlier work
[7] = background statement; cited from earlier work; remark: listed apart in the source

In the case of O=c1[nH]c2sc(Cl)c(-c3ccc4c(c3O)CCCC4)c2c([O-])c1-c1ccccc1.[K+] [PXL770, monohydrate potassium salt of 2-chloro-4-hydroxy-3-(5-hydroxytetralin-6-yl)-5-phenyl-7H-thieno[2,3-b]pyridin-6-one], the Urine volume [1] is reported as “decreased significantly urine volume”, the “Glycosuria (urine glucose level)” value ([2]; 8 days) is reported as “reduced glycosuria” and the “Glycosuria (urine glucose level)” value ([2]; 90 days) is reported as “reduced glycosuria”. For the same compound, the “Albuminuria (urine albumin level)” value ([3]; 8 days (13 weeks of age), vs age-matched untreated ZSF1 rats) was “a decrease in albuminuria was observed”, the “Albuminuria (urine albumin level)” value ([3]; 90 days (24 weeks of age), vs untreated ZSF1 rats) was “significantly reduced” and the “Glomerular filtration rate (GFR)” value [4] was “significantly prevented the decrease in GFR”.

In the case of O=C(O)c1c[nH]c2cc(Cl)c(-c3ccc(C4(O)CCC4)cc3)cc12 [PF-06409577], the “Efficacy in a preclinical model of diabetic nephropathy” value [5] is given as “showed efficacy”.

For N#Cc1c(O)c2c(-c3ccc(-c4ccccc4O)cc3)csc2[nH]c1=O [Compound A-799662], the Oral bioavailability [6] is listed as “poor oral bioavailability”.

In the case of MK-8722, the Cardiac side effects [7] is listed as “known to trigger cardiac side effects”.
